From patent US5066794A, “Process for preparing a disaccharide derivative” (Daiichi Pharmaceutical Co., Ltd., priority 1990, dated 1991)

Key:
[1] = system: murine lymphocytes (splenocytes); experiment: Mitogenicity: stimulation of [^3 H]-labeled thymidine uptake into isolated murine lymphocytes (splenocytes); format: cell-based, BALB/c nu/nu mice; details: Mus musculus, Splenocyte, 48 hours, 37° C., read-out: Stimulation Index ± S.E. of mitogenicity ([^3 H]-labeled thymidine uptake; T/C)
Experimental: Spleen of BALB/c nu/nu mice (male; 8-week old) was minced, and lymphocytes collected from the minced spleen were incubated with graded doses of test compounds in RPMI 1640 medium without fetal bovine serum at 37° C. at a concentration of 1×10^5 to 1×10^6 lymphocytes per ml for 48 hours. Twenty-four hours before the completion of the incubation, [^3 H]-labeled thymidine (manufactured by New England Nuclear) was added to the culture. After the completion of the incubation, cells were collected on glass microfiber paper and dried, and the radioactivity of [^3 H]-labeled thymidine incorporated into the cells was measured. The ratio of thymidine uptake in the test culture to which the test compound had been added to that in the respective control culture was determined as a stimulation index. The higher the stimulation index, the higher the mitogenicity.

[2] = system: Japanese domestic white rabbits; experiment: Test II: pyrogenicity test (body temperature increase in rabbits); details: 0.1 μg/kg intravenous; febrile = temperature increase of 0.6° C. or more
Experimental: The pyrogenicity of the compounds of this invention was determined in terms of body temperature increase in rabbits after intravenous injection of the test compound in accordance with the test method of pyrogenicity defined in Japanese Pharmacopoeia. That is, the rectal temperatures of Japanese domestic white rabbits (body weight: 2 to 2.5 kg) were measured 3 times at one-hour intervals. When the temperature in the second and third measurements were substantially equal, the third temperature was taken as a reference temperature. Within 15 minutes after the third measurement, the test compound dissolved in pyrogen-free distilled water was injected in the ear vein, and the rectal temperature was measured 3 times at one-hour intervals after injection. A difference between the reference temperature and the maximum temperature was taken as an increase of body temperature, and the pyrogenicity of the test compound was expressed by the number of febrile animals showing a temperature increase of 0.6° C. or more.

Japanese white rabbits = experiment: Test I: local Shwartzman reaction induction activity; format: in vivo; details: 100 μg S. minnesota LPS i.v. 20 hours later
Experimental: The local Shwartzman reaction test (Test I) is examined to determine the phenomenon of necrosis, at the site where a test compound was injected, induced by intravenous injection of lipopolysaccharide (hereinafter referred to as LPS) after 20 hours from intracutaneous injection of the test compound to test animals, preferably in rabbits.
The test on Shwartzman reaction specific to endotoxin was carried out as follows using Japanese white rabbits (female, weighing around 3 kg). That is, Japanese domestic white rabbits were intracutaneously injected with the test compound. Twenty hours later, 100 μg of LPS extracted from Salmonella minnesota R595, Re-mutant was intravenously injected to each rabbit. The Shwartzman reaction-induction activity was expressed in terms of number of animals that suffered from hemorrhagic necrosis at the site that had been prepared by intracutaneous injection of the test compound.

| SMILES | fold induction at 0.01 µg/mL ([1]; 0.01 μg/ml) | fold induction at 0.1 µg/mL ([1]; 0.1 μg/ml) | fold induction at 1 µg/mL ([1]; 1 μg/ml) | Pyrogenicity: Number of Febrile Animals/Number of Tested Animals [2] | Shwartzman reaction-induction activity: Number of Necrosed Animals/Number of Tested Animals (Japanese white rabbits; 20 μg/site intracutaneous) | Shwartzman reaction-induction activity: Number of Necrosed Animals/Number of Tested Animals (Japanese white rabbits; 80 μg/site intracutaneous) |
| --- | --- | --- | --- | --- | --- | --- |
| CCCCCCCCCCCCCC(=O)O[C@H](CCCCCCCCCCC)CC(=O)O[C@@H]1[C@@H](NC(=O)C[C@@H](CCCCCCCCCCC)OC(=O)CCCCCCCCCCC)[C@H](OC[C@H]2O[C@H](OP(=O)(O)O)[C@H](NC(=O)C[C@H](O)CCCCCCCCCCC)[C@@H](OC(=O)C[C@H](O)CCCCCCCCCCC)[C@@H]2O)O[C@H](CO)[C@H]1OP(=O)(O)O [Compound of Present Invention, 6-O-{2-Deoxy-2-[(R)-3-dodecanoyloxytetradecanoylamino]-3-O-[(R)-3-tetradecanoyloxytetradecanoyl]-4-O-phosphono-β-D-glucopyranosyl}-2-deoxy-2-[(R)-3-hydroxytetradecanoylamino]-3-O-[(R)-3-hydroxytetradecanoyl]-1-O-phosphono-α-D-glucopyranose] | 4.06 ± 0.35 | 9.05 ± 0.7 | 11.8 ± 0.13 | 3/4 | 2/3 |  |
| CCCCCCCCCCC[C@@H](O)CC(=O)N[C@H]1[C@H](OC[C@H]2O[C@H](OP(=O)(O)O)[C@H](NC(=O)C[C@H](O)CCCCCCCCCCC)[C@@H](OC(=O)C[C@H](O)CCCCCCCCCCC)[C@@H]2O)O[C@H](CO)[C@@H](OP(=O)(O)O)[C@@H]1OC(=O)C[C@H](O)CCCCCCCCCCC [Control Compound 1, 6-O-{2-Deoxy-2-[(R)-3-hydroxytetradecanoylamino]-3-O-[(R)-3-hydroxytetradecanoyl]-4-O-phosphono-β -D-glucopyranosyl}-2-deoxy-2-[(R)-3-hydroxytetradecanoylamino]-3-O-[(R)-3-hydroxytetradecanoyl]-1-O-phosphono-α-D-glucopyranose, reference compound] |  |  |  | 0/3 |  | 0/3 |
